Values quoted from earlier work in patent publication US6887842B1, “Modulating a pharmacokinetic property of a drug by administering a bifunctional molecule containing the drug” (The Board of Trustees of the Leland Stanford Junior …, priority 1999, dated 2005).
Read-outs that look alike come from different tables or passages of the source. Values belong to the compound of their own block, whether it stands above or below them.

Legend:
[1] = in vivo
[2] = target: albumin (Homo sapiens, UniProt P02768)
albumin, sequence (P02768 25-609, species assumed): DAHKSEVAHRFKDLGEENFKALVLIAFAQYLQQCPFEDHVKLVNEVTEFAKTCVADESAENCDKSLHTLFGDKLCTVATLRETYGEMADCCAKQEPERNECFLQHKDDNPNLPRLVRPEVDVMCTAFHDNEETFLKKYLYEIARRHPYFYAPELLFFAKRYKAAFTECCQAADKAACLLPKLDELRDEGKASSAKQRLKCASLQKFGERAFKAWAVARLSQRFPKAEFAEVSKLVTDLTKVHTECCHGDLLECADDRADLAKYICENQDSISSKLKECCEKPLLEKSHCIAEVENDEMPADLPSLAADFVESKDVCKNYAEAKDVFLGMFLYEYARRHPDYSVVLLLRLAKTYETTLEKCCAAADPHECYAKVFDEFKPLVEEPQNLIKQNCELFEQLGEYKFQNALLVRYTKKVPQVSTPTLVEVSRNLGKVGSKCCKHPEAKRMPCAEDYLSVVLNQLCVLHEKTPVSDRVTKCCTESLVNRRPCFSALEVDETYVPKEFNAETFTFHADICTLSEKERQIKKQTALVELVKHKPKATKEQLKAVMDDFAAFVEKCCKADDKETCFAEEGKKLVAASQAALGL

[3] = in vivo; remark: listed apart in the source
[4] = in vivo; remark: listed apart in the source

Compound: Cc1ccc2nc(N)[nH]c(=O)c2c1Sc1ccncc1 [AG 337]
- half-life [1]: 2 to 3 h

Compound: Cc1noc(NS(=O)(=O)c2ccc(N)cc2)c1C [Sulfisoxazole]
- degree of binding to albumin [2]: extensively bound to albumin
- distribution (extracellular space) [3]: found almost exclusively in the extracellular space

Compound: CN(C)CCCN1c2ccccc2Sc2ccc(Cl)cc21 [chlorpromazine]
- degree of binding to albumin ([2]; plasma): extensively bound to albumin

Compound: COc1ccc([C@@H]2Sc3ccccc3N(CCN(C)C)C(=O)[C@@H]2OC(C)=O)cc1 [diltiazem]
- hepatic first-pass clearance [4]: extensive hepatic first-pass clearance

Compound: C=CCN1CC[C@]23c4c5ccc(O)c4O[C@H]2C(=O)CC[C@@]3(O)[C@H]1C5 [naloxone]
- hepatic first-pass clearance [4]: extensive hepatic first-pass clearance

Compound: FK506
- half-life [1]: 30 h

Further lines, results first:

- hepatic first-pass clearance [4]: extensive hepatic first-pass clearance
Compound: CC[C@H](C)C(=O)O[C@H]1C[C@@H](C)C=C2C=C[C@H](C)[C@H](CC[C@@H]3C[C@@H](O)CC(=O)O3)[C@H]21 [lovastatin]

- hepatic first-pass clearance [4]: extensive hepatic first-pass clearance
Compound: Sc1ncnc2nc[nH]c12 [mercaptopurine]

- degree of binding to albumin ([2]; plasma): extensive binding to albumin
Compound: COc1ccc2cc([C@H](C)C(=O)O)ccc2c1 [naproxen]

- hepatic first-pass clearance [4]: extensive hepatic first-pass clearance
Compound: CC[C@H](C)C(=O)O[C@H]1C[C@H](O)C=C2C=C[C@H](C)[C@H](CC[C@@H](O)C[C@@H](O)CC(=O)O)[C@H]21 [pravastatin]

- half-life [1]: 60 h
Compound: CO[C@H]1C[C@@H]2CC[C@@H](C)[C@@](O)(O2)C(=O)C(=O)N2CCCC[C@H]2C(=O)O[C@H]([C@H](C)C[C@@H]2CC[C@@H](O)[C@H](OC)C2)CC(=O)[C@H](C)/C=C(\C)[C@@H](O)[C@@H](OC)C(=O)[C@H](C)C[C@H](C)/C=C/C=C/C=C/1C [rapamycin]
